Assay [1] has as its system mixture of Pseudomonas aeruginosa, Klebsiella pneumoniae, Staphylococcus aureus, and Bacillus subtilis. Put plainly: Growth inhibition assay. The class given is cell-based. As to conditions: for % Inhibition of growth by CTAC: Table 3, single active. The text has this:
The growth inhibition assay used in the Examples measures inhibition of growth (or lack thereof) of a microbial consortium. Inhibition of growth can be the result of killing of the cells (so no growth occurs), killing of a significant portion of the populations of cells so that regrowth requires a prolonged time, or inhibition of growth without killing (stasis). Regardless of the mechanism of action, the impact of a biocide (or combination of biocides) can be measured over time on the basis of an increase in the size of the community.
The assay measures the efficacy of one or more biocides at preventing growth of a consortium of bacteria in a dilute mineral salts medium. The medium contains (in mg/l) the following components: FeCl3.6H2O (1); CaCl2.2H2O (10); MgSO4.7H2O (22.5); (NH4)2SO4 (40); KH2PO4 (10); K2HPO4 (25.5); Yeast Extract (10); and glucose (100). After all components are added to deionized water, the pH of the medium is adjusted to 7.5. Following filter sterilization, aliquots are dispensed in 100 ul quantities to sterile microtiter plate wells. Dilutions of DBMAL and/or “Biocide B” are then added to the microtiter plate. After preparing the combinations of actives as illustrated below, each well is inoculated with 100 μl of a cell suspension containing ca. 1×10^6 cells per milliliter of a mixture of Pseudomonas aeruginosa, Klebsiella pneumoniae, Staphylococcus aureus, and Bacillus subtilis. The final total volume of medium in each well is 300 μl. […] The resulting matrix allows testing of eight concentrations of each active and 64 combinations of actives in the ratios (of actives).
Controls (not shown) contain the medium with no biocide added. After preparing the combinations of actives as illustrated above, each well is inoculated with 100 μl of a cell suspension containing ca. 1×10^6 cells per milliliter of a mixture of Pseudomonas aeruginosa, Klebsiella pneumoniae, Staphylococcus aureus, and Bacillus subtilis. The final total volume of medium in each well is 300 μl.
Immediately after the microtiter plates are prepared, the optical density (OD) readings for each well is measured at 580 nm and the plates are then incubated at 37° C. for 24 hr. After the incubation period, the plates are gently agitated before OD580 values are collected. The OD580 values at T0 are subtracted from T24 values to determine the total amount of growth (or lack thereof) that occurs. These values are used to calculate the percent inhibition of growth caused by the presence of each biocide and each of the 64 combinations. A 90% inhibition of growth is used as a threshold for calculating synergy index (SI) values with the following equation: Synergy Index=MDBMAL/CDBMAL+MB/CB
where • CDBMAL: Concentration of DBMAL required to inhibit ˜90% of bacterial growth when used alone • CB: Concentration of biocide (B) required to inhibit ˜90% of bacterial growth when used alone. • MDBMAL: Concentration of DBMAL required to inhibit ˜90% of bacterial growth when used in combination with biocide (B). • MB: Concentration of biocide (B) required to inhibit ˜90% of bacterial growth when used in combination with DBMAL The SI values are interpreted as follows: • SI<1: Synergistic combination • SI=1: Additive combination • SI>1: Antagonistic combination

For assay [2], the system named is mixture of Pseudomonas aeruginosa ATCC 10145 and Staphylococcus aureus ATCC 6538. Put plainly: Kill assay (MBC, synergy index). The format is cell-based. As to conditions: 37° C., 2 hours. How it is done:
This assay is used as a preliminary evaluation of synergy between the actives. The procedure is as follows. A mineral salts solution (0.2203 g of CaCl2, 0.1847 g of MgSO4, and 0.2033 g of NaHCO3 in 1 L water, approximately pH 8) is inoculated with equal amounts (about 10^7 CFU/ml) of a mixture of Pseudomonas aeruginosa ATCC 10145 and Staphylococcus aureus ATCC 6538. Aliquots of the cell suspension are then treated with 2,2-dibromomalonamide (“DBMAL”), […], and their combinations at various concentration levels. […] The MBC values are then used to calculate a synergy index (SI) values.
Summaries of the kill assay results are presented in the individual Examples. In each table, MBC values for each biocide and the blends tested are presented Likewise, the Synergy Index (“SI”) values for the combinations are listed. SI is calculated with the following equation: Synergy Index=Ca/CA+Mb/CB […]

Broadly, the inhibition is how much of the control response was suppressed.

Read-outs that look alike come from different tables or passages of the source.

For the molecule “1-(3-chloroallyl)-3,5,7-triaza-1-azoniaadamantane chloride [CTAC]”, the “% Inhibition of growth by CTAC” value stood at 0% in assay [1] (CTAC Concn. 3.91 mg/l, 24 h); 18% in assay [1] (CTAC Concn. 7.81 mg/l, 24 h); 20% in assay [1] (CTAC Concn. 15.63 mg/l, 24 h); 21% in assay [1] (CTAC Concn. 31.25 mg/l, 24 h); 0% in assay [1] (CTAC Concn. 62.5 mg/l, 24 h); 100% in assay [1] (CTAC Concn. 125.0 mg/l, 24 h). Also, the “% Inhibition of growth by CTAC” value is 100% in assay [1] (CTAC Concn. 250.0 mg/l, 24 h) and 100% in assay [1] (CTAC Concn. 500.0 mg/l, 24 h).
In the case of `CC1(C)COCN1` [4,4-D, 4,4-Dimethyloxazolidine], in assay [1] (24 h, 4,4-D alone 7.81 mg/l, read-out: % Inhibition of growth by 4,4-D), the inhibition at 7.81 µg/mL was 0%. The inhibition at 15.63 µg/mL in assay [1] (24 h, 4,4-D alone 15.63 mg/l, read-out: % Inhibition of growth by 4,4-D) turned out to be 2%. Further, the inhibition at 31.25 µg/mL in assay [1] (24 h, 4,4-D alone 31.25 mg/l, read-out: % Inhibition of growth by 4,4-D) was determined as 13%. In assay [1] (24 h, 4,4-D alone 62.5 mg/l, read-out: % Inhibition of growth by 4,4-D), the inhibition at 62.5 µg/mL was 98%. Moreover, the inhibition at 125 µg/mL in assay [1] (24 h, 4,4-D alone 125.0 mg/l, read-out: % Inhibition of growth by 4,4-D) was 100%. In assay [1] (24 h, 4,4-D alone 250.0 mg/l, read-out: % Inhibition of growth by 4,4-D), the inhibition at 250 µg/mL turned out to be 99%. Moreover, the inhibition at 500 µg/mL in assay [1] (24 h, 4,4-D alone 500.0 mg/l, read-out: % Inhibition of growth by 4,4-D) was determined as 100%. Further, the inhibition at 1000 µg/mL in assay [1] (24 h, 4,4-D alone 1000.0 mg/l, read-out: % Inhibition of growth by 4,4-D) turned out to be 100%.
As for `ClC=CC[N+]12CN3CN(CN(C3)C1)C2` [CTAC, 1-(3-chloroallyl)-3,5,7-triaza-1-azoniaadamantane chloride], the inhibition at 1.95 µg/mL in assay [1] (24 h, Table 6, CTAC alone 1.95 mg/l) worked out at 0%. For the same molecule, the inhibition at 3.91 µg/mL in assay [1] (24 h, Table 6, CTAC alone 3.91 mg/l) amounted to 0%. In assay [1] (24 h, Table 6, CTAC alone 7.81 mg/l, read-out: % Inhibition of growth by CTAC), the inhibition at 7.81 µg/mL came out at 9%. For the same molecule, the inhibition at 15.625 µg/mL in assay [1] (24 h, Table 6, CTAC alone 15.625 mg/l) came out at 0%. In addition, the inhibition at 31.25 µg/mL in assay [1] (24 h, Table 6, CTAC alone 31.25 mg/l, read-out: % Inhibition of growth by CTAC) turned out to be 35%. Besides, the inhibition at 62.5 µg/mL in assay [1] (24 h, Table 6, CTAC alone 62.5 mg/l, read-out: % Inhibition of growth by CTAC) was determined as 41%. The inhibition at 125 µg/mL in assay [1] (24 h, Table 6, CTAC alone 125.0 mg/l, read-out: % Inhibition of growth by CTAC) came out at 100%. Moreover, in assay [1] (24 h, Table 6, CTAC alone 250.0 mg/l, read-out: % Inhibition of growth by CTAC), the inhibition at 250 µg/mL is 98%.
In the case of `CCC12COCN1COC2` [EBO, 7-ethyl bicyclooxazolidine], the “% Inhibition of growth by EBO” value in assay [1] (EBO alone 7.81 mg/l, 24 h) is reported as 0%; in assay [1] (EBO alone 15.63 mg/l, 24 h), 0%; in assay [1] (EBO alone 31.25 mg/l, 24 h), 0%; in assay [1] (EBO alone 62.5 mg/l, 24 h) it was 3%; in assay [1] (EBO alone 125.0 mg/l, 24 h) it was 10%; in assay [1] (EBO alone 250.0 mg/l, 24 h) it was 71%. In addition, the “% Inhibition of growth by EBO” value came to 96% in assay [1] (EBO alone 500.0 mg/l, 24 h) and 100% in assay [1] (EBO alone 1000.0 mg/l, 24 h).
Turning to `O=CCCCC=O` [Glut, glutaraldehyde], in assay [1] (biocide alone, 24 h), the “concentration needed to provide at least 90% inhibition of growth” value is 125 mg/L. Further, the “MBC (minimum biocide concentration needed to completely kill), biocide alone” value in assay [2] stood at 29.6 µg/mL.
With `CCN1CN(CC)CN(CC)C1` [TEHT, 1,3,5-Triethylhexahydro-s-triazine], the inhibition at 0.19 µg/mL in assay [1] (24 h, TEHT alone 0.19 mg/l, read-out: % Inhibition of growth by TEHT) stood at 10%. Also, the inhibition at 0.39 µg/mL in assay [1] (24 h, TEHT alone 0.39 mg/l, read-out: % Inhibition of growth by TEHT) was found to be 11%. The inhibition at 0.78 µg/mL in assay [1] (24 h, TEHT alone 0.78 mg/l, read-out: % Inhibition of growth by TEHT) turned out to be 10%. In addition, the inhibition at 1.56 µg/mL in assay [1] (24 h, TEHT alone 1.56 mg/l, read-out: % Inhibition of growth by TEHT) worked out at 22%. Moreover, the inhibition at 3.13 µg/mL in assay [1] (24 h, TEHT alone 3.13 mg/l, read-out: % Inhibition of growth by TEHT) was 49%. In addition, in assay [1] (24 h, TEHT alone 6.25 mg/l, read-out: % Inhibition of growth by TEHT), the inhibition at 6.25 µg/mL amounted to 82%. In addition, the inhibition at 12.5 µg/mL in assay [1] (24 h, TEHT alone 12.5 mg/l, read-out: % Inhibition of growth by TEHT) was 98%. In assay [1] (24 h, TEHT alone 25.0 mg/l, read-out: % Inhibition of growth by TEHT), the inhibition at 25 µg/mL is 100%.
Consider `O=[N+]([O-])C(CO)(CO)CO` [TN, tris(hydroxymethyl)nitromethane], for which, in assay [1] (24 h, TN alone 7.81 mg/l, read-out: % Inhibition of growth by TN), the inhibition at 7.81 µg/mL was 0%. Besides, the inhibition at 15.63 µg/mL in assay [1] (24 h, TN alone 15.63 mg/l, read-out: % Inhibition of growth by TN) stood at 4%. The inhibition at 31.25 µg/mL in assay [1] (24 h, TN alone 31.25 mg/l, read-out: % Inhibition of growth by TN) was 0%. Also, in assay [1] (24 h, TN alone 62.5 mg/l, read-out: % Inhibition of growth by TN), the inhibition at 62.5 µg/mL was found to be 50%. Moreover, the inhibition at 125 µg/mL in assay [1] (24 h, TN alone 125.0 mg/l, read-out: % Inhibition of growth by TN) came to 100%. In addition, the inhibition at 250 µg/mL in assay [1] (24 h, TN alone 250.0 mg/l, read-out: % Inhibition of growth by TN) is 100%. Also, the inhibition at 500 µg/mL in assay [1] (24 h, TN alone 500.0 mg/l, read-out: % Inhibition of growth by TN) amounted to 100%. Moreover, the inhibition at 1000 µg/mL in assay [1] (24 h, TN alone 1000.0 mg/l, read-out: % Inhibition of growth by TN) was determined as 100%.

Values taken from US8747873B2, “Compositions of dibromomalonamide and their use as biocides” (Dow Global Technologies LLC, priority 2012, dated 2014).
